The text below walks through data of ChEMBL document CHEMBL5126607, “Discovery and In Vivo Evaluation of ACT-660602: A Potent and Selective Antagonist of the Chemokine Receptor CXCR3 for Autoimmune Diseases” (J Med Chem, 2022).

The target of data set [1] is T1, hERG (Homo sapiens, UniProt Q12809). Put plainly: Inhibition of hERG expressed in CHO cells 3 uM at by Q patch-clamp method relative to control. In kind it is toxicity, cell-based. Conditions: CHO cells that express hERG. (Block of hERG is tested as a sign of cardiac risk.)
T1 sequence (Q12809 whole entry): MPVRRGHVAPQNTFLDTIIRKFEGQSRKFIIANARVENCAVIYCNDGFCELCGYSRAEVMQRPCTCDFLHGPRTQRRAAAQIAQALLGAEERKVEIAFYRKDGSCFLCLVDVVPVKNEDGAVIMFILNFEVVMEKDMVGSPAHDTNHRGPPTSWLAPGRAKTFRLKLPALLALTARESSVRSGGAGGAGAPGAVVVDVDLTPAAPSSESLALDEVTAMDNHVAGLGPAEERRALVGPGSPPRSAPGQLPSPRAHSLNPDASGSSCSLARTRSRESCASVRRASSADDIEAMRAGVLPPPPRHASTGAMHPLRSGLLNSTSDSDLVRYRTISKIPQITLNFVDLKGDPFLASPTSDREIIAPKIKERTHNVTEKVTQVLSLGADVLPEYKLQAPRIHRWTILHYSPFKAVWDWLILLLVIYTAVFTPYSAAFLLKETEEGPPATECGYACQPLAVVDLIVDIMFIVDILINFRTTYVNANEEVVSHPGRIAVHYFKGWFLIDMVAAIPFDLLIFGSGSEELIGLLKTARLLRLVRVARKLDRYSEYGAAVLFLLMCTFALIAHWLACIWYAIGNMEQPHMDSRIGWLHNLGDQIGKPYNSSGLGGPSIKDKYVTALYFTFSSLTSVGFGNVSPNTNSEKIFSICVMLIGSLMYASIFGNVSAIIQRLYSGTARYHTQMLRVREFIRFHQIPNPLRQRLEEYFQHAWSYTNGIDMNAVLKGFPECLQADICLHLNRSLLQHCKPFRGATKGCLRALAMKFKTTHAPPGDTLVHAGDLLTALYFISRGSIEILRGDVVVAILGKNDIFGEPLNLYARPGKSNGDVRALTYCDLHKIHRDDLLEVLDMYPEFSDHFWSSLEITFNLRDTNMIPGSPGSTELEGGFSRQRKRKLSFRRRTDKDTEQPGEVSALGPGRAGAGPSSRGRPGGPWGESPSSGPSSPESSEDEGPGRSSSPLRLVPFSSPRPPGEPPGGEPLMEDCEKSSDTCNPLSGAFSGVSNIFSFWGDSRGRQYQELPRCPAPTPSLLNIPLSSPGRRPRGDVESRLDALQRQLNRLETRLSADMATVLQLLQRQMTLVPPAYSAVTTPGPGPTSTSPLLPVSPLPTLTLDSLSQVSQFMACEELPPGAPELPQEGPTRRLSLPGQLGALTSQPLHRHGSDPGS
Data set [2] has as its target T2, Voltage-gated inwardly rectifying potassium channel KCNH2 (Homo sapiens, UniProt Q12809). Put plainly: Inhibition of hERG expressed in CHO cells by Q patch-clamp method.
The nature of data set [3]: Solubility of the compound in FaSSIF.
The nature of data set [4]: Lipophilicity, log D of the compound at pH 7.4. Conditions: buffer.
The nature of data set [5]: Solubility of the compound in FeSSIF.
Data set [6] is described as follows: Metabolic stability in Beagle dog hepatocyte assessed as intrinsic clearance measured per 10^6 cells in presence of NADPH regenerating system by LC-MS/MS analysis. The settings on record: hepatocytes.
Data set [7] can be described thus: Solubility of the compound in pH 7 buffer.
Data set [8] in a line: in vivo. Conditions: beagle, dog, po, 2 mg/kg.
Data set [9] in a line: in vivo. The settings on record: Wistar, rat, po, 2 mg/kg.
A further data set is described as follows: in vitro. The settings on record: human, microsomes.
Data set [10] can be described thus: in vivo. Conditions: beagle, dog, po, 2 mg/kg. This is another data set of the same source.
Data set [11] in a line: in vivo. Conditions: beagle, dog, po, 2 mg/kg. The source holds these as a separate data set.
Data set [12] in a line: in vivo. The settings on record: beagle, dog, po, 2 mg/kg. This is another data set of the same source.
Data set [13] in a line: Metabolic stability in rat hepatocyte assessed as intrinsic clearance measured per 10^6 cells in presence of NADPH regenerating system by LC-MS/MS analysis. Conditions: hepatocytes.
The nature of data set [14]: in vivo. The settings on record: Wistar, rat, po, 2 mg/kg. The source holds these as a separate data set.
Data set [15] is described as follows: Half life in Beagle dog at 0.5 mg/kg, iv and 2 mg/kg, po. Conditions: in vivo.
Data set [16] in a line: Half life in Wistar rat at 0.5 mg/kg, iv and 2 mg/kg, po. The settings on record: in vivo.
Data set [17] in a line: in vivo. Conditions: Wistar, rat, po, 2 mg/kg. The source holds these as a separate data set.
A short description of data set [18]: in vivo. Conditions: Wistar, rat, po, 2 mg/kg. The source holds these as a separate data set.
Data set [19] addresses T3, C-X-C chemokine receptor type 3 (Homo sapiens, UniProt P49682).
T3 sequence (P49682 whole entry): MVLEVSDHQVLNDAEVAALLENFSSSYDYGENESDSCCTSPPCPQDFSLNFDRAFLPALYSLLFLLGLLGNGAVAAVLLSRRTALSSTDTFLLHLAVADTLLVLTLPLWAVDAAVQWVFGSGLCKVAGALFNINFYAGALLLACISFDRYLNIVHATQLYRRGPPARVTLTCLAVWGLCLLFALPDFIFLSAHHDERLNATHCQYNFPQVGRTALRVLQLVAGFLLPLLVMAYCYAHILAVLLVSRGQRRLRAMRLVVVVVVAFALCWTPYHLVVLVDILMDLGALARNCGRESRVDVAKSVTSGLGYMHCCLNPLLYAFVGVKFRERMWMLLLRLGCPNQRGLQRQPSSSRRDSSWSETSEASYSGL
Description: Inhibition of CXCR3 receptor internalization in human venous whole blood incubated for 30 mins by flow cytometer analysis

Data set [20] deals with T3, C-X-C chemokine receptor type 3. This is another data set of the same source.
Description: Antagonist activity at recombinant human CXCR3 in human U2SO cells assessed as reduction in CXCL10-induced beta-arrestin recruitment by TANGO assay
Data set [21] in a line: in vivo. Conditions: Balb/c, mouse, po, 10 mg/kg.
The conditions of data set [22]: human, microsomes, 1 µM.
Data set [23] can be described thus: in vivo. The settings on record: Balb/c, mouse, po, 10 mg/kg. This is another data set of the same source.
Data set [24] can be described thus: in vivo. Conditions: Balb/c, mouse, po, 10 mg/kg. This is another data set of the same source.
The nature of data set [25]: Fractional unbound plasma concentration in Balb/c mouse at 10 mg/kg, po.
Data set [26] deals with T3, C-X-C chemokine receptor type 3. This is another data set of the same source.
Description: Antagonist activity at recombinant human CXCR3 expressed in human CHO-K1 cells co-expressing Galpha15 incubated for 10 mins by Fluo-4AM dye based FLIPR assay
Data set [27] concerns the target T1, hERG. Kind of data set: Inhibition of hERG expressed in CHO cells 10 uM at by Q patch-clamp method relative to control.
A short description of data set [28]: Fractional unbound plasma concentration in Wistar rat at 0.5 mg/kg, iv and 2 mg/kg, po. The settings on record: in vivo.
The target in data set [29] is T2, Voltage-gated inwardly rectifying potassium channel KCNH2. Kind of data set: Inhibition of hERG by manual patch clamp method.
Data set [30] is described as follows: Fractional unbound plasma concentration in Beagle dog at 0.5 mg/kg, iv and 2 mg/kg, po.
Data set [31] can be described thus: in vivo. Conditions: Balb/c, mouse, po, 10 mg/kg. The source holds these as a separate data set.
The nature of data set [32]: Fractional unbound plasma concentration in mouse at 1 mg/kg, iv and 10 mg/kg, po.
Data set [33] is described as follows: Half life in BALB/c mouse at 1 mg/kg, iv and 10 mg/kg, po. The settings on record: in vivo.
The nature of data set [34]: Fractional unbound plasma concentration in rat at 0.2 mg/kg, iv and 2 mg/kg, po.
A short description of data set [35]: Half life in Wistar rat at 0.2 mg/kg, iv and 2 mg/kg, po. Conditions: in vivo.

In brackets after ≈: the same amount, converted by molar mass. Some results are limits rather than exact numbers.

As usually defined, the inhibition is the drop in the measured response relative to a control, in per cent. The term IC50 denotes the concentration that inhibits the measured activity by half. As usually defined, the solubility is the concentration that dissolves in the medium under given conditions. A word on the logD: it is lipophilicity at a set pH, counting ionised and neutral species. For orientation: hepatocyte CLint means a measure of how fast metabolising enzymes remove a compound, apart from limits set by blood flow. In general, Tmax refers to the time from dosing to the highest level. For orientation: microsomal CLint means the capacity of the preparation to metabolise the compound, expressed as a volume cleared per time. Higher therefore signals rapid turnover. The term Cmax denotes the peak of the concentration-time curve. As a reminder, the AUC is concentration integrated over time. Low values mean less exposure, high ones more exposure. A word on the bioavailability: it is the share of a dose that reaches the circulation, judged against a reference dose that is usually intravenous. Low values mean little systemic uptake, high ones much systemic uptake. What is called half-life is the time needed for the level to fall by half in the phase considered. A high value points to slow loss. By fraction unbound is commonly meant the share of the substance not bound to proteins or other matrix. High values mean weak binding, low ones extensive binding.

T2 sequence (Q12809 whole entry): as the sequence (Q12809 whole entry) above

Take `CCOc1ncc(-c2nc(C(F)(F)F)sc2N2CCN(C(=O)Cn3cnc(C(F)(F)F)n3)[C@H](C)C2)cn1`: the inhibition at 3 µM against hERG [1] came out at 31%. In data set [2], this compound came in with an IC50 of more than 6000 nM.

On to `Cc1nc(C)n(CC(=O)N2CCN(c3sc(C(F)(F)F)nc3-c3cnc(C(F)(F)F)nc3)C[C@H]2C)n1`, for which the results for the solubility in data set [3], in data set [5] and in [7] were 450 µg/mL (≈ 842 µM), 530 µg/mL (≈ 992 µM) and 387 µg/mL (≈ 724 µM), respectively. In data set [4], the logD is 2.9. In addition, the hepatocyte CLint in data set [6] and in [13] was less than 2 µL/min/1e6 cells in each case. The Tmax was found to be 60 min in “in vivo [8]” and 30 min in “in vivo [9]”. For the same compound, the microsomal CLint at 1 µM in “in vitro” is less than 10 µL/min/mg. The Cmax is 1380 ng/mL in “in vivo [10]” and 1520 ng/mL in “in vivo [18]”. Also, the AUC came out at 20000 ng·h/mL in “in vivo [11]” and 14000 ng·h/mL in the data set “in vivo [14]”. Besides, the bioavailability in the data set “in vivo [12]” and in the data set “in vivo [17]” was 80% throughout. Further, the half-life in data set [15] was 870 min; in data set [16], 426 min.

For `CCOc1ncc(-c2nc(C(F)(F)F)sc2N2CCN(C(=O)Cn3cnc4cccnc43)[C@H](C)C2)cn1`, the IC50 in data set [19] is 48 nM; in data set [20] it was 20 nM; in data set [26], 2 nM; in data set [2], 13000 nM. This compound returned a Cmax in the data set “in vivo [21]” of 1800 ng/mL. The compound also returned a CLH in [22] of 4.5 mL/h/kg. In “in vivo [23]”, this compound came in with an AUC of 1590 ng·h/mL. For the same compound, the Tmax in “in vivo [24]” turned out to be 30 min. The compound further returned a fraction unbound in data set [25] of 0.008. At hERG [27], this compound had an inhibition at 10 µM of 44%.

Take `CCOc1ncc(-c2nc(C(F)(F)F)sc2N2CCN(C(=O)Cn3nc(C)nc3C)[C@H](C)C2)cn1`: the IC50 in [19] was 364 nM; in data set [20], 173 nM; in data set [29], 44000 nM; in [26], 7 nM; in data set [2] it was more than 20000 nM. Besides, the fraction unbound in data set [28] amounted to 0.101; in data set [25] it was 0.023; in data set [30], 0.328. The logD in data set [4] was 2.8. Moreover, the figures for the Cmax in the data set “in vivo [21]”, in the data set “in vivo [10]” and in the data set “in vivo [18]” were 11600 ng/mL, 415 ng/mL and 574 ng/mL, respectively. Besides, the intrinsic metabolic clearance (hepatocyte CLint) was 5.1 µL/min/1e6 cells in data set [6] and less than 2 µL/min/1e6 cells in [13]. The exposure (AUC) in “in vivo [23]” is 63600 ng·h/mL; in “in vivo [11]” it was 861 ng·h/mL; in “in vivo [14]” it was 2850 ng·h/mL. The time of peak concentration (Tmax) in “in vivo [8]”, in “in vivo [24]” and in “in vivo [9]” was 30 min throughout. This compound also came in with an inhibition at 3 µM at hERG [1] of 4%. The compound further showed a microsomal CLint at 1 µM in “in vitro” of less than 10 µL/min/mg. Further, the bioavailability in the data set “in vivo [12]” and in the data set “in vivo [17]” was 52% throughout. Besides, the half-life is 60 min in data set [15] and 372 min in data set [16].

As to `C[C@@H]1CN(c2scnc2-c2nc3ccccc3[nH]2)CCN1C(=O)Cn1cnc2cccnc21`, the IC50 is 554 nM in [19], 830 nM in data set [20], 5.9 nM in [26] and 2200 nM in data set [2]. In “in vivo [21]”, this compound returned a Cmax of 95.2 ng/mL. This compound displayed a bioavailability in the data set “in vivo [31]” of 4%. The AUC in “in vivo [23]” stood at 60.7 ng·h/mL. Moreover, the Tmax in the data set “in vivo [24]” was determined as 60 min. The microsomal CLint at 1 µM in “in vitro” amounted to 12 µL/min/mg. The fraction unbound in data set [32] turned out to be 0.122. This compound also showed a half-life in data set [33] of 6 min.

With `Cc1nc(C)n(CC(=O)N2CCN(c3sc(C(F)(F)F)nc3-c3cnc(OC(C)C)nc3)C[C@H]2C)n1`, the IC50 is 216 nM in data set [19], 138 nM in [20], 3.4 nM in data set [26] and more than 20000 nM in data set [2]. Moreover, the fraction unbound stood at 0.035 in data set [28] and 0.192 in data set [30]. The hepatocyte CLint in data set [6] amounted to 6.8 µL/min/1e6 cells; in [13] it was 2.5 µL/min/1e6 cells. In “in vivo [9]”, the Tmax came out at 30 min. The microsomal CLint at 1 µM in the data set “in vitro” is 16 µL/min/mg. In “in vivo [14]”, this compound showed an AUC of 3980 ng·h/mL. Besides, the half-life in data set [16] was 108 min. For the same compound, the bioavailability in the data set “in vivo [17]” was found to be 89%. In “in vivo [18]”, this compound gave a Cmax of 806 ng/mL.

Take `C[C@@H]1CN(c2sc(C(F)(F)F)nc2-c2nc3ccccc3[nH]2)CCN1C(=O)Cn1cnc2cccnc21`: the 50% inhibitory concentration (IC50) in data set [19] was 70 nM; in data set [20], 31 nM; in data set [26], 1.6 nM; in [2], 1750 nM. Moreover, the fraction unbound in data set [34] was found to be 0.017; in data set [32], 0.01. For the same compound, in “in vivo [9]”, the Tmax was found to be 36 min. In the data set “in vitro”, this compound had a microsomal CLint at 1 µM of 89 µL/min/mg. In addition, the half-life in data set [35] was 48 min. Besides, the area under the curve (AUC) in the data set “in vivo [14]” worked out at 191 ng·h/mL. Further, in the data set “in vivo [17]”, the bioavailability is 7%. The Cmax in the data set “in vivo [18]” was determined as 91.3 ng/mL.
